Converted amounts (≈) assume the structure as drawn.

The source of these data is patent publication US4970226A, “Bis-indole imidazole compounds which are useful antitumor and antimicrobial agents” (Harbor Branch Oceanographic Institution, Inc., priority 1989, dated 1990).

The test system of test [1] is P388 murine leukemia cells. In words: P388 in vitro antitumor screen (inhibition of P388 cell proliferation, MTT assay). The conditions noted are these: Mus musculus; for IC50: P388 cells, 48-hour incubation, MTT assay. The class given is cell-based. On the procedure:
P388 murine leukemia cells, obtained from the National Cancer Institute, Bethesda, MD, were maintained at 37° C. in 5% CO2 in humidified air. Growth medium was Roswell Park Memorial Institute medium 1640 supplemented with 10% heat-inactivated horse serum. Stock cultures of P388 cells were grown in antibiotic-free growth medium and were subcultured (10^5 cells/ml, 25 ml cultures in T-25 plastic tissue culture flasks) every 2-3 days. […] An appropriate volume of the dilution was transferred to duplicate wells in a 96-well plate, evaporated to dryness, and 200 μl of growth medium-containing cells at a density of 1×10^5 cells/ml were added per well (final concentration of extract was 20 μg/ml). […] For daily quality control, each technician determines the IC50 of fluorouracil for inhibition of P388 cell proliferation. After 48-hour incubations, cell number was determined with the MTT assay (below), calculated as a percent of untreated cell growth, converted to percent inhibition, and reported to the chemist requesting the screen.
The initial determination of an IC50 value for inhibition of P388 cell proliferation with a crude, semipure, or pure sample was made by diluting the sample in methanol to the appropriate concentration, and then serial 1:1 dilutions were made in duplicate in a 96-well plate, such that the final concentrations in the assay were 20, 10, 5, 1.25, and 0.625 μg/ml. After solvent was evaporated to dryness, cells were added to each well as described above. After 48-hour incubations, cell numbers were determined with the MTT assay, converted to percent control, and plotted versus the log of the sample concentration. Curves were fitted by least-squares linear regression of logit-transformed data and the concentration of sample that inhibited cell proliferation by 50% was reported to the chemist requesting the screen. If the IC50 value was less than 0.625 μg/ml, additional serial dilutions were made and tested for activity.
MTT or 3-(4,5-dimethylthiazol-2-yl)-2,5-diphenyl-tetrazolium bromide is used in an established method (J. Immunol. Methods [1983] 65:55-63) to enumerate cells rather than "Coulter counting." For screening purposes, the correlation between percent inhibition determined for actual crude extracts with the Coulter counter and MTT method was very good (r=0.953, n=102 separate determinations of activity at 20 μg/ml), and no extract that was positive as determined by actual cell counts was lost using the MTT assay.
On the technique in general: Tetrazolium dyes change colour on reduction, which living cells bring about.

The test system of the next test is Bacillus subtilis. The experiment in a line: Antimicrobial disc diffusion assay, Bacillus subtilis. It counts as cell-based, Bacillus subtilis (ATCC strain 6633). The conditions noted are these: 20 μg/disc, 6.35 mm paper discs, overnight at 37° C., read-out: Antimicrobial Bacillus subtilis zone (diameter of the zone of growth inhibition). The procedure: (§1) Unless otherwise noted, all media were autoclaved at 121° C. for 15 minutes.
Standard spore stocks (ATCC strain 6633 were purchased from Difco (#0453-36-0).
B. subtilis was inoculated into Penassay medium (1 mL of stock per 200 mL agar), melted, and cooled to 45° C. Plates were poured as described above.
Paper discs (6.35 mm) were impregnated with the test substance and allowed to dry. They were then placed onto the surface of a test plate prepared as detailed above. Plates were incubated overnight at 37° C., after which time the zones of growh inhibition could be read. These were expressed as the diameter of the zone in millimeters. Standard drugs were used in all cases.
On the technique in general: In agar diffusion tests the substance spreads into inoculated agar from a disc or well.

The subject of a further test is Candida albicans. The experiment in a line: Antimicrobial MIC protocol, Candida albicans. It counts as cell-based, Candida albicans (ATCC strain 44506). The note with it: lowest concentration which completely inhibited growth, 1000 cells/mL, 37° C. overnight. The procedure: as §1
Candida albicans: C. albicans (ATCC strain 44506 was grown on Sabouraud dextrose agar to produce single colonies, one of which was used to inoculate Sabouraud dextrose broth. The broth was incubated at 37° C. with shaking at 200 rpm for 18 hours. The resultant culture was brought to 10% (v/v) glycerol, frozen at -80° C., and used as the inoculum for the anti-Candida assay.
Two-fold dilutions of the test compound were prepared in 50 μL volumes of a suitable solvent using 96-well microtiter plates. In a separate 96-well plate, 35 μL volumes of either Sabouraud dextrose broth or RPMI-1640 were placed in each well. The test compound (5 μL) was then transferred to the broth. An inoculum of C. albicans in the appropriate medium was added to give a cell density of 1000 cells/mL and a total volume of 50 μL. Plates were incubated at 37° C. overnight.

Regarding `Brc1ccc2c(-c3c[nH]c(-c4c[nH]c5cc(Br)ccc45)n3)c[nH]c2c1` [Nortopsentin A], the IC50 (commonly the concentration that inhibits the measured activity by half) in test [1] was 7.6 µg/mL (≈ 16.7 µM). In addition, the zone of inhibition (usually the size of the clear area around the sample on an inoculated plate) at 20 µg/disc with Bacillus subtilis was 8 mm. Also, in the test on Candida albicans, the lowest concentration to inhibit growth (MIC) was 3.1 µg/mL (≈ 6.8 µM).
For `Cn1c(-c2cn(C)c3ccccc23)c[n+](C)c1-c1cn(C)c2cc(Br)ccc12` [Tetramethylnortopsentin B] the same measures were 0.34 µg/mL, 12 mm and > 50 µg/mL.
As for `O=c1[nH]cc(F)c(=O)[nH]1` [fluorouracil, reference compound], the inhibition (as a rule, the percentage by which the read-out fell short of the control) at 0.2 µg/mL in test [1] (P388, 48 h, read-out: inhibition of cell replication (positive control)) is ~95%.
In test [1], `Brc1ccc2c(-c3nc(-c4c[nH]c5ccccc45)c[nH]3)c[nH]c2c1` [Nortopsentin B] had an IC50 of 7.8 µg/mL (≈ 20.7 µM). Also, in the test on Bacillus subtilis, the zone of inhibition at 20 µg/disc came to 9 mm. The MIC – broadly, the smallest concentration in the dilution series that meets the test's criterion for growth inhibition – in the test on Candida albicans was 6.2 µg/mL (≈ 16.4 µM).
Turning to `Brc1ccc2c(-c3c[nH]c(-c4c[nH]c5ccccc45)n3)c[nH]c2c1` [Nortopsentin C], in test [1], the IC50 was found to be 1.7 µg/mL (≈ 4.51 µM). For the same compound, in the test with Bacillus subtilis, the zone of inhibition at 20 µg/disc turned out to be 9 mm. The same compound registered an MIC with Candida albicans of 12.5 µg/mL (≈ 33.1 µM).
